Test results from the supplement of paper PMC4862054.

Experiments:
Details in all cases: incubation time: 72 h
BT-474 [1] = assay: normalised response (% of control), CellTox Green; higher = less cell death (100 = DMSO, 0 = benzethonium chloride kill control)
Outline: (§1)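 Plates were normalised with 0.1 % DMSO as 100 and a positive kill control as 0. Breast cancer cell lines in 20 µl suspension had been seeded into 384-well plates with compound at 5 concentrations in 10-fold steps over a compound-specific 10,000-fold range, incubated 72 h, and read for CellTox Green fluorescence (485/520 nm) followed by CellTiter-Glo luminescence. Each value is the normalised signal at a single concentration.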

BT-549 [2] = assay: as above
Outline: as §1

CAL-120 [3] = assay: as above
Outline: as §1

CAL-148 [4] = assay: as above
Outline: as §1

CAL-51 [5] = assay: as above
Outline: as §1

CAL-85-1 [6] = assay: as above
Outline: as §1

DU-4475 [7] = assay: as above
Outline: as §1

HCC1143 [8] = assay: as above
Outline: as §1

HCC1599 [9] = assay: as above
Outline: as §1

HCC1937 [10] = assay: as above
Outline: as §1

HDQ-P1 [11] = assay: as above
Outline: as §1

MCF-10A [12] = assay: as above
Outline: as §1

MDA-MB-231 [13] = assay: as above
Outline: as §1

MDA-MB-436 [14] = assay: as above
Outline: as §1

MDA-MB-453 [15] = assay: as above
Outline: as §1

MDA-MB-468 [16] = assay: as above
Outline: as §1

MFM-223 [17] = assay: as above
Outline: as §1

BT-474 [18] = assay: normalised response (% of control), CellTiter-Glo; higher = more viable cells (100 = DMSO, 0 = benzethonium chloride kill control)
Method: (§2)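 DSRT, 72 h incubation, CellTox Green / CellTiter-Glo readout. Signal is normalised to DMSO and benzethonium chloride controls. Value is the normalised response at dose 3.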

BT-549 [19] = assay: as above
Method: as §2

CAL-120 [20] = assay: as above
Method: as §2

CAL-148 [21] = assay: as above
Method: as §2

CAL-51 [22] = assay: as above
Method: as §2

CAL-85-1 [23] = assay: as above
Method: as §2

DU-4475 [24] = assay: as above
Method: as §2

HCC1143 [25] = assay: as above
Method: as §2

HCC1599 [26] = assay: as above
Method: as §2

HCC1937 [27] = assay: as above
Method: as §2

HDQ-P1 [28] = assay: as above
Method: as §2

Hs578T [29] = assay: as above
Method: as §2

MCF-10A [30] = assay: as above
Method: as §2

MDA-MB-231 [31] = assay: as above
Method: as §2

MDA-MB-436 [32] = assay: as above
Method: as §2

MDA-MB-453 [33] = assay: as above
Method: as §2

MDA-MB-468 [34] = assay: as above
Method: as §2

MFM-223 [35] = assay: as above
Method: as §2

SK-BR-3 = assay: as above
Method: as §2

Hs578T [36] = assay: normalised response (% of control), CellTox Green; higher = less cell death (100 = DMSO, 0 = benzethonium chloride kill control)
Outline: as §1

| Structure (SMILES) | normalised response (BT-474 [1]) | normalised response (BT-549 [2]) | normalised response (CAL-120 [3]) | normalised response (CAL-148 [4]) | normalised response (CAL-51 [5]) | normalised response (CAL-85-1 [6]) | normalised response (DU-4475 [7]) | normalised response (HCC1143 [8]) | normalised response (HCC1599 [9]) | normalised response (HCC1937 [10]) | normalised response (HDQ-P1 [11]) | normalised response (MCF-10A [12]) | normalised response (MDA-MB-231 [13]) | normalised response (MDA-MB-436 [14]) | normalised response (MDA-MB-453 [15]) | normalised response (MDA-MB-468 [16]) | normalised response (MFM-223 [17]) | normalised response (BT-474 [18]) | normalised response (BT-549 [19]) | normalised response (CAL-120 [20]) | normalised response (CAL-148 [21]) | normalised response (CAL-51 [22]) | normalised response (CAL-85-1 [23]) | normalised response (DU-4475 [24]) | normalised response (HCC1143 [25]) | normalised response (HCC1599 [26]) | normalised response (HCC1937 [27]) | normalised response (HDQ-P1 [28]) | normalised response (Hs578T [29]) | normalised response (MCF-10A [30]) | normalised response (MDA-MB-231 [31]) | normalised response (MDA-MB-436 [32]) | normalised response (MDA-MB-453 [33]) | normalised response (MDA-MB-468 [34]) | normalised response (MFM-223 [35]) | normalised response (SK-BR-3) | normalised response (Hs578T [36]) |
| --- | --- | --- | --- | --- | --- | --- | --- | --- | --- | --- | --- | --- | --- | --- | --- | --- | --- | --- | --- | --- | --- | --- | --- | --- | --- | --- | --- | --- | --- | --- | --- | --- | --- | --- | --- | --- | --- |
| CCn1c(C(=O)N(C2CC2)C2CC2)cc2c3c(ncn3C)c(Nc3cc(C)n(C)n3)nc21 (100 nM) | 101% | 106% | 90.4% | 103% | 101% | 108% | 101% | 98.8% | 96% | 57.1% | 102% | 77.7% | 106% | 93.9% | 99.3% | 83.1% | 94.8% | 100% | 110% | 95.7% | 103% | 87.7% | 100% | 99.2% | 101% | 93% | 97.4% | 98.3% | 110% | 106% | 99.7% | 106% | 93.2% | 97% | 99.8% | 105% |  |
| COc1ccc(S(=O)(=O)Nc2cccnc2Nc2ccc(O)cc2)cc1 [ABT-751] (100 nM) | 92.9% | 95.4% | 94.7% | 104% | 98.6% | 92.2% | 97.4% | 69.5% | 101% | 110% | 101% | 57% | 102% | 83.8% | 98% | 81.9% |  | 99.2% | 100% | 95.2% | 96.6% | 88.9% | 96.9% | 99.6% | 99.3% | 109% | 92.5% | 96% | 107% | 96.6% | 101% | 98.5% | 84.2% | 97% | 101% | 93% |  |
| CCNC(=O)CCC/C=C\C[C@@H]1[C@@H](/C=C/[C@@H](O)CCc2ccccc2)[C@H](O)C[C@@H]1O [Bimatoprost] (55 nM) | 98.7% | 94.8% | 98.3% | 95% | 103% | 83.9% | 96.9% | 110% | 97.2% | 76.7% | 64.3% | 89.2% | 99.8% |  | 97.6% |  | 101% | 97.2% | 98.3% | 99.7% | 95.8% | 90.4% | 92.4% | 94.7% | 99.7% | 99.4% | 97.1% | 94.2% | 94.9% | 90.1% | 100% | 100% | 99.1% | 94% | 104% | 91.7% | 103% |
| COc1cc(Nc2c(C#N)cnc3cc(OCCCN4CCN(C)CC4)c(OC)cc23)c(Cl)cc1Cl [Bosutinib] (100 nM) | 101% | 97.1% | 99.3% | 105% | 101% | 117% | 109% | 76.2% | 101% | 54.8% | 101% | 103% | 104% | 104% | 100% | 148% | 101% | 104% | 103% | 100% | 104% | 100% | 98.3% | 97.5% | 101% | 93.1% | 95.5% | 85.9% | 99% | 77.4% | 100% | 103% | 103% | 95.4% | 99.3% | 109% |  |
| CCN(CC)CCCC(C)Nc1ccnc2cc(Cl)ccc12 (stereo not drawn) [Chloroquine] (1000 nM) | 79.8% | 105% | 103% | 104% | 85.5% | 110% | 99.9% | 109% | 97.9% | 102% | 88.4% | 86.3% | 98% | 85% | 96.3% |  | 87.7% | 101% | 103% | 110% | 86.9% | 78.1% | 102% | 93% | 97.4% | 97% | 90.6% | 103% | 96% | 94.4% | 98.1% | 108% | 81.3% | 83.1% | 93.4% | 82.9% | 99.3% |
| CC(C)(C)c1nc(-c2cccc(NS(=O)(=O)c3c(F)cccc3F)c2F)c(-c2ccnc(N)n2)s1 [Dabrafenib] (25 nM) | 103% | 98.8% | 105% | 106% | 110% | 107% | 99.8% | 107% | 93.3% | 94.8% | 95.9% | 108% | 114% | 79.1% | 105% | 119% |  | 99.2% | 104% | 99.8% | 108% | 89.9% | 96.6% | 82.6% | 118% | 105% | 102% | 103% | 104% | 115% | 100% | 111% | 96.7% | 94.7% | 106% | 110% |  |
| CO[C@@]12[C@H](COC(N)=O)C3=C(C(=O)C(C)=C(N)C3=O)N1C[C@@H]1N[C@@H]12 [Mitomycin C] (100 nM) | 100% | 99.5% | 101% | 60.3% | 73.6% | 93.3% | 95.3% | 90% | 91.5% | 84.9% |  | 81.8% | 97% | 83.8% | 102% |  | 99.2% | 95.2% | 96.5% | 91.8% | 89.6% | 101% | 101% | 99% | 98.2% | 95.7% | 93.9% | 104% | 98.9% | 92.2% | 93.5% | 90.8% | 94.1% | 91.3% | 93.8% | 94% |  |
| CC1(C)CCC(c2ccc(Cl)cc2)=C(CN2CCN(c3ccc(C(=O)NS(=O)(=O)c4ccc(N[C@H](CCN5CCOCC5)CSc5ccccc5)c(S(=O)(=O)C(F)(F)F)c4)cc3)CC2)C1 [Navitoclax] (100 nM) | 99.4% | 96.6% | 92.1% | 100% | 94% | 93.6% | 96.2% | 92.1% | 101% | 67.1% |  | 79.6% | 73.8% | 72.7% | 92% | 104% | 103% | 88.1% | 96.7% | 87.2% | 88% | 104% | 89.7% | 92.9% | 95.6% | 94.5% | 87.9% | 96.8% | 93.6% | 91.4% | 91.4% | 91.9% | 87.7% | 83% | 96% | 88.5% |  |
| CC(C)n1cnc2c(NCCc3ccc(O)cc3)nc(-c3csc4ccccc34)nc21 [StemRegenin 1] (100 nM) | 80% | 100% | 102% | 103% | 89.2% | 113% | 102% | 96.3% | 99.5% | 98.2% | 88.2% | 117% | 111% | 118% | 109% | 105% | 98.8% | 100% | 99.2% | 112% | 103% | 80.8% | 98.8% | 98.4% | 109% | 91% | 96.9% | 95.2% | 103% | 99.5% | 112% | 101% | 93.8% | 93.8% | 104% | 103% |  |
